# According to patent publication US20100022798A1, “Ibuprofen amine salts and synthesis thereof” (NATIONAL CENTRAL UNIVERSITY, priority 2008, published 2010):
# Test: pH stability of the ibuprofen amine salt
# Format: physicochemical
# Details: pH range in which the salt is stable, after tested
compound,measurement,value
CC(C)Cc1ccc(C(C)C(=O)O)cc1.NC(CO)(CO)CO (stereo not shown) [ibuprofen amine salt],stability,stable between pH 4 and 9
